Experimental data: ChEMBL document CHEMBL1671861, “Preclinical evaluation of 1H-benzylindole derivatives as novel human immunodeficiency virus integrase strand transfer inhibitors” (Antimicrob Agents Chemother, 2008)
Activity calls are given as the source filed them. The rule behind the calls is not given here.

How the values were obtained:
[1] = Selectivity index, ratio of CC50 for human MT4 cells to EC50 for Human immunodeficiency virus 1 3B; format: toxicity, cell-based; conditions: read-out: Ratio CC50/EC50
[2] = test system: Human immunodeficiency virus 1; assay: Antiviral activity against Human immunodeficiency virus 1 3B infected in human MT4 cells assessed as inhibition of viral replication; format: functional, organism-based
[3] = molecular target: T1, Human immunodeficiency virus type 1 integrase (Human immunodeficiency virus 1, UniProt Q7ZJM1); assay: Inhibition of Human immunodeficiency virus 1 integrase strand transfer activity
T1 sequence (Q7ZJM1 whole entry): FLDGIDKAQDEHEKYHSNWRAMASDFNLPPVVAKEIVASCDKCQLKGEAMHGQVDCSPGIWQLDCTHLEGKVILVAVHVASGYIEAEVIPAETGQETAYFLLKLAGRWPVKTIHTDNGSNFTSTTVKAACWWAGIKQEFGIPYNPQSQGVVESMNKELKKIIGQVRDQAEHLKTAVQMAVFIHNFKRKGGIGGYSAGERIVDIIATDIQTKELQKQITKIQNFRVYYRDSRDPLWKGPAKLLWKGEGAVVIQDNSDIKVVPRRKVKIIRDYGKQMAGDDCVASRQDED

[4] = molecular target: T1, Human immunodeficiency virus type 1 integrase; assay: Inhibition of Human immunodeficiency virus 1 integrase
[5] = Cytotoxicity against human MT4 cells by MTT assay; format: cell-based
[6] = test system: Human immunodeficiency virus 2; assay: Antiretroviral activity against Human immunodeficiency virus 2 ROD infected in human MT4 cells assessed as inhibition of virus-induced cytopathic effect by MTT assay; format: functional, organism-based; conditions: Human immunodeficiency virus 2, ISOLATE ROD
[7] = test system: Simian immunodeficiency virus; assay: Antiretroviral activity against Simian immunodeficiency virus MAC 251 infected in human MT4 cells assessed as inhibition of virus-induced cytopathic effect by MTT assay; format: functional, organism-based; conditions: MAC 251, MT4
[8] = test system: Human immunodeficiency virus 2; assay: Antiretroviral activity against Human immunodeficiency virus 2 EHO infected in human MT4 cells assessed as inhibition of virus-induced cytopathic effect by MTT assay; format: functional, organism-based
[9] = test system: Human immunodeficiency virus 1; assay: Antiretroviral activity against Human immunodeficiency virus 1 3B infected in human MT4 cells assessed as inhibition of virus-induced cytopathic effect by MTT assay; format: functional, organism-based
[10] = test system: Human immunodeficiency virus 1; assay: Antiviral activity against non nucleoside reverse transcriptase inhibitor-resistant Human immunodeficiency virus 1 infected in human MT4 cells assessed as inhibition of virus-induced cytopathic effect by MTT assay; format: functional, organism-based; conditions: Human immunodeficiency virus 1, MT4
[11] = test system: Human immunodeficiency virus 1; assay: Antiviral activity against Protease inhibitor-resistant Human immunodeficiency virus 1 infected in human MT4 cells assessed as inhibition of virus-induced cytopathic effect by MTT assay; format: functional, organism-based; conditions: Human immunodeficiency virus 1, MT4
[12] = test system: Human immunodeficiency virus 1; assay: Antiviral activity against Reverse transcriptase inhibitor-resistant Human immunodeficiency virus 1 infected in human MT4 cells assessed as inhibition of virus-induced cytopathic effect by MTT assay; format: functional, organism-based; conditions: Human immunodeficiency virus 1, MT4
[13] = test system: Human immunodeficiency virus 1; assay: Antiretroviral activity against Human immunodeficiency virus 1 NL4.3 infected in human MT4 cells assessed as inhibition of virus-induced cytopathic effect by MTT assay; format: functional, organism-based; conditions: Human immunodeficiency virus 1, NL4.3, MT4
[14] = Intrinsic clearance in human liver microsome; format: ADME; conditions: liver microsomes
[15] = test system: Human immunodeficiency virus 1; assay: Ratio of EC50 for Human immunodeficiency virus 1 3B after 70 passages to EC50 for wild-type Human immunodeficiency virus 1 3B; format: functional
[16] = test system: Human immunodeficiency virus 1; assay: Antiviral activity against X4 tropic Human immunodeficiency virus 1 3B infected in PMBC; format: functional, organism-based
[17] = test system: Human immunodeficiency virus 1; assay: Antiviral activity against Human immunodeficiency virus 1 infected in 293T cells assessed as inhibition of early cDNA synthesis by Lentiviral vector transduction assay; format: functional, organism-based
[18] = test system: Human immunodeficiency virus 1; assay: Antiviral activity against R5 tropic Human immunodeficiency virus 1 BAL infected in PMBC; format: functional, organism-based
[19] = test system: Human immunodeficiency virus 1; assay: Antiviral activity against Human immunodeficiency virus 1 during lentiviral transduction process assessed as inhibition of early cDNA synthesis by Lentiviral vector transduction assay; format: functional, organism-based
[20] = Apparent permeability from apical to basolateral side of human Caco2 cells; format: ADME, cell-based; conditions: Caco-2
[21] = test system: Human immunodeficiency virus 1; assay: Antiviral activity against Human immunodeficiency virus 1 infected in 293T cells assessed as integrated proximal DNA by Q-PCR; format: functional, organism-based
[22] = test system: Human immunodeficiency virus 1; assay: Antiviral activity against Human immunodeficiency virus 1 infected in 293T cells assessed as increase in amount of 2-LTR circles by Q-PCR in presence of 12.2 uM CHI/1043; format: functional, organism-based

CCOC(=O)/C(O)=C/C(=O)c1cn(Cc2ccc(F)cc2)c2ccc(OC)cc12
selectivity ratio [1]: 11

COc1cccc2c(C(=O)/C=C(\O)C(=O)O)cn(Cc3ccc(F)cc3)c12
selectivity ratio [1]: 12

COc1cc2c(cc1Cc1cccc(Cl)c1F)c(=O)c(C(=O)O)cn2[C@H](CO)C(C)C
EC50 [2]: 0.83 nM

CCOC(=O)/C(O)=C/C(=O)c1cn(Cc2ccc(F)cc2)c2cc(OC)ccc12
selectivity ratio [1]: < 1

COc1ccc2c(C(=O)/C=C(\O)C(=O)O)cn(Cc3ccc(F)cc3)c2c1
selectivity ratio [1]: 8

CCOC(=O)/C(O)=C/C(=O)c1cn(Cc2ccc(F)cc2)c2cccc(OC)c12
selectivity ratio [1]: 24

O=C(O)/C(O)=C/C(=O)c1cn(Cc2ccccc2)c2ccccc12
IC50 [3]: 2330 nM
EC50 [2]: 8350 nM
IC50 [4]: 860 nM
CC50 [5]: 64.1 µM
selectivity ratio [1]: 8

O=C1Nc2ccc(Cl)cc2[C@@](C#CC2CC2)(C(F)(F)F)O1 [EFAVIRENZ]
EC50 [6]: > 31700 nM
EC50 [7]: > 31.7 µM
EC50 [8]: > 31700 nM

COc1ccc(OC)c2c1c(C(=O)/C=C(\O)C(=O)O)cn2Cc1ccc(F)cc1
selectivity ratio [1]: 100

CCOC(=O)/C(O)=C/C(=O)c1cn(Cc2ccc(F)cc2)c2c(OC)cccc12
selectivity ratio [1]: 1

Cc1c(O)cccc1C(=O)N[C@@H](CSc1ccccc1)[C@H](O)CN1C[C@H]2CCCC[C@H]2C[C@H]1C(=O)NC(C)(C)C
EC50 [9]: 28 nM
EC50 [10]: 35 nM
EC50 [6]: 50 nM
EC50 [7]: 0.05 µM
EC50 [8]: 49 nM
EC50 [11]: 170 nM
EC50 [12]: 29 nM
EC50 [13]: 23 nM

Cc1cn([C@H]2C[C@H](N=[N+]=[N-])[C@@H](CO)O2)c(=O)[nH]c1=O [ZIDOVUDINE]
EC50 [9]: 27 nM
EC50 [10]: 20 nM
EC50 [6]: 67 nM
EC50 [7]: 0.011 µM
EC50 [8]: 56 nM
EC50 [11]: 26 nM
EC50 [12]: 200 nM
EC50 [13]: 21 nM

CCOC(=O)/C(O)=C/C(=O)c1cn(Cc2ccc(F)cc2)c2c(OC)ccc(OC)c12
selectivity ratio [1]: 20

O=C(O)C(=O)CC(=O)c1cc(OCc2ccccc2)cc(OCc2ccccc2)c1
EC50 [9]: 12400 nM
EC50 [2]: 12400 nM
EC50 [10]: 19300 nM
EC50 [6]: 62100 nM
EC50 [7]: 22.6 µM
EC50 [11]: 7400 nM
CC50 [5]: 62 µM
EC50 [12]: 7200 nM
selectivity ratio [1]: 5
EC50 [13]: 24500 nM

O=C(NCc1ccc(F)cc1)c1nc(N2CCCCS2(=O)=O)c2cccnc2c1O
IC50 [3]: 7 nM
EC50 [2]: 4.9 nM
IC50 [4]: 2.3 nM
CC50 [5]: 2.25 µM
selectivity ratio [1]: 460

COc1cccc2c1c(C(=O)/C=C(\O)C(=O)O)cn2Cc1ccc(F)cc1
microsomal CLint [14]: 11 µL/min/mg
EC50 [9]: 600 nM
EC50 [2]: 600 nM
EC50 [10]: 840 nM
Ratio EC50 [15]: >40
EC50 [6]: 2110 nM
EC50 [7]: 4.76 µM
EC50 [16]: 300 nM
EC50 [8]: 1760 nM
EC50 [11]: 680 nM
inhibition [17]: Active
IC50 [4]: 110 nM
EC50 [18]: 300 nM
inhibition [19]: inactive
Papp A→B [20]: 5.5 ×10⁻⁶ cm/s
EC50 [12]: 860 nM
selectivity ratio [1]: 69.8
inhibition [21]: inactive
EC50 [13]: 730 nM
inhibition [22]: inactive

COc1ccc2c(c1)c(C(=O)/C=C(\O)C(=O)O)cn2Cc1ccc(F)cc1
selectivity ratio [1]: 12

Cc1nnc(C(=O)NC(C)(C)c2nc(C(=O)NCc3ccc(F)cc3)c(O)c(=O)n2C)o1
EC50 [2]: 1.4 nM
